Test results from patent US20050009812A1, “Remedies for stress diseases comprising mitochondrial benzodiazepine receptor antagonists” (priority 2001, published 2005).

Columns and labels:
[1] = target: T1, MBR (Rattus norvegicus, UniProt P16257); experiment: Receptor binding: [3H]PK11195 binding to rat brain membrane preparation; parameters: The brains without cerebellum were homogenized in ice-cold 50 mmol/L Tris-HCl buffer (pH7.4); from tissue; host or cells: male Wistar rat brain without cerebellum, crude membrane pellet; details: competition with [3H]PK11195 1 nmol/L, Cheng & Prusoff
Protocol: Experiment 1: Receptor Binding
The affinity of the compound to MBR was determined using rat brain membrane preparation. Male Wistar rats were decapitated. After extirpation of the brain, cerebellum was removed. The brains without cerebellum were homogenized in ice-cold 50 mmol/L Tris-HCl buffer (pH7.4). The homogenate was centrifuged at 12,000 g for 20 min (4° C.), then supernatant was discarded. The residual pellet was washed in the same buffer. The pellet resuspended in 50 mmol/L Tris-HCl buffer (pH7.4) and adjusted to about 1 mg/mL was used as the rat brain membrane preparation for binding assay.
To determine the amount of non-specific binding, 20 μmol/L of PK11195 was added in place of DMSO and incubate for 1 h. The reaction was terminated by rapid filtration on GF/B filter soaked with 0.3% polyethyleneimine using cell harvester, then the filter was washed twice with 50 mmol/L Tris-HCl buffer (pH7.4). After dried in the oven, the radioactivity on the filer was measured by liquid scintillation counter. The data were analyzed using analysis soft KELL (Ver.6, BIOSOFT).
To determine the amount of non-specific binding, 20 μmol/L of PK11195 was added in place of DMSO. And to determine the affinity of the invention, 10 pmol/L to 1 μmol/L of the compound dissolved in DMSO was added in place of DMSO. The reaction was terminated as above described, then radioactivity on the filer was measured by liquid scintillation counter. […] The inhibitory constant (Ki value) was derived according to the equation of Cheng & Prusoff (Biochem. Pharmacol., 22, 3099-3108, 1973).

[2] = tested on: rat adrenocortical mitochondria; experiment: Determination of pregnenolone in rat adrenocortical mitochondria; format: biochemical; details: for pregnenolone content relative to DMSO treated group: final concentration of the compound 1 μmol/L; for Amount of pregnenolone production (%): 10 μmol/L, DMSO assumed 100, n=5; for MBR agonist or antagonist as judged by effect on pregnenolone production: compared with DMSO treated group
[3] = tested on: stress-loaded male Wistar rats; experiment: Anti-stress effect: number of fecal pellets in psychological (water aversive) stress model; format: in vivo, rat; details: for number of fecal pellets: p.o., male Wistar rats, psychological (water aversive) stress, counted 1 h after start of stress loading, mean ± spread; for number of fecal pellets / effect on stress-induced increase in the number of fecal pellets: n=10/group; for effect on number of fecal pellets vs vehicle (significance, all doses): all tested p.o. doses vs vehicle, stress-loaded male Wistar rats; for effect on stress-induced increase in the number of fecal pellets: oral administration 30 min before stress loading, counted after 1 h
Protocol: Psychological stress was loaded to male Wistar rats (Brain Res., 641, 21-28 (1994)). Platform was located in the center of the container and water was collected to 10 cm in height. Thirty min after oral administration of vehicle or the compound, stress loading was started. One hour after, number of fecal pellets were counted (n=10/group). The rats without administration and stress-loading rarely defecated in 1 h.

[4] = target: T1, MBR; experiment: MBR antagonist activity: FGIN1-27-stimulated pregnenolone production in rat adrenocortical mitochondria; format: biochemical; details: FGIN1-27 1 nmol/L; MBR antagonist 0.1 pmol/L to 1 μmol/L; FIGS. 1 and 2
Source text: Horizontal axis represents the concentrations of the compound.

Structure (SMILES) | Ki [1] | number of fecal pellets ([3]; 3 mg/kg) | number of fecal pellets ([3]; 30 mg/kg) | Amount of pregnenolone production (%) [2] | MBR agonist or antagonist as judged by effect on pregnenolone production [2] | effect on stress-induced increase in the number of fecal pellets [3] | further results
O=C(NCc1ccc(F)cc1C(F)(F)F)c1cccc(Cl)c1Cl [1(16), N-(4-fluoro-2-trifluoromethylbenzyl)-2,3-dichlorobenzamide] | 0.19 nM |  |  |  |  |  | 
O=C(NCc1cc(F)ccc1OCc1ccccc1)c1cccc(Cl)c1Cl [1(110), N-(2-benzyloxy-5-fluorobenzyl)-2,3-dichlorobenzamide] | 0.22 nM |  |  |  |  |  | 
Fc1cccc(Cl)c1Cn1nnnc1-c1ccccc1C(F)(F)F [2(14), 1-(2-chloro-6-fluorobenzyl)-5-(2-trifluoromethylphenyl)-1H-1,2,3,4-tetrazole] | 3.3 nM | 6.6 ± 0.76 | 5.1 ± 0.78 |  |  |  | pregnenolone content relative to DMSO treated group [2]: 0.98 times; number of fecal pellets ([3]; 0.3 mg/kg): 6.1 ± 0.82; antagonistic effect on FGIN1-27-stimulated pregnenolone production [4]: antagonize the steroid production stimulated by MBR agonist
Clc1ccc(Cl)c(Cc2nnnn2-c2cccc(Cl)c2Cl)c1 [2(71), 5-(2,5-dichlorobenzyl)-1-(2,3-dichlorophenyl)-1H-1,2,3,4-tetrazole] | 0.08 nM |  |  |  |  |  | 
Clc1cccc(Cc2nnnn2-c2cccc(Cl)c2Cl)c1Cl [2(74), 5-(2,3-dichlorobenzyl)-1-(2,3-dichlorophenyl)-1H-1,2,3,4-tetrazole] | 0.16 nM |  |  |  |  |  | 
Clc1cccc(-c2nnnn2Cc2cc(Cl)ccc2OCc2ccccc2)c1 [2(105), 1-(2-benzyloxy-5-chlorobenzyl)-5-(3-chlorophenyl)-1H-1,2,3,4-tetrazole] | 0.73 nM |  |  |  |  |  | 
CCN(Cc1ccccc1)C(=O)Cn1c(=O)n(C)c2cnc(-c3ccccc3)nc21 [AC-5216, N-benzyl-N-ethyl-2-(7-methyl-8-oxo-2-phenyl-7,8-dihydro-9H-purin-9-yl)acetamide] |  | 7.5 ± 0.63 | 9.3 ± 0.94 | 122.65 ± 7.56% | MBR agonists which increase pregnenolone production | did not show an effect | MBR agonist or antagonist as judged by effect on pregnenolone production ([2]; listed as N-benzyl-N-ethyl-2-(7-methyl-8-oxo-2-phenyl-7,8-dihydro-9H-purin-9-yl)acetamide): MBR antagonist; number of fecal pellets ([3]; 0.3 mg/kg): 9.6 ± 0.74; effect on number of fecal pellets vs vehicle (significance, all doses) [3]: No significant effect in any dose.; effect on stress-induced increase in the number of fecal pellets ([3]; listed as AC-5261): did not produce significant effects
CCCN(CCC)C(=O)c1c(-c2ccc(Cl)cc2)nc2cc(Cl)cc(Cl)n12 [CB34, 5,7-dichloro-2-(4-chlorophenyl)-3-dipropylaminocarbonylimidazo[1,2-a]pyridine] |  | 10.2 ± 0.96 | 8.6 ± 1.00 | 131.36 ± 5.38% | MBR agonists which increase pregnenolone production | did not produce significant effects | number of fecal pellets ([3]; 10 mg/kg): 7.6 ± 0.93; effect on number of fecal pellets vs vehicle (significance, all doses) [3]: No significant effect in any dose.
CCCCCCN(CCCCCC)C(=O)Cc1c(-c2ccc(F)cc2)[nH]c2ccccc12 [FGIN1-27, 2-[2-(4-fluorophenyl)-1H-indole-3-yl]-N,N-dihexylacetamide] |  |  |  |  | MBR agonists which increase pregnenolone production |  | pregnenolone content relative to DMSO treated group [2]: 1.37 times
CCC(C)N(C)C(=O)c1cc2ccccc2c(-c2ccccc2Cl)n1 (stereo not shown) [PK11195, 1-(2-chlorophenyl)-N-methyl-N-(1-methylpropyl)-3-isoquinolinecarboxamide] |  | 6.6 ± 0.97 | 5.5 ± 0.81 | 101.82 ± 1.64% | MBR antagonists which hardly effect on it | produced significant effects | number of fecal pellets ([3]; 0.3 mg/kg): 6.4 ± 0.76; antagonistic effect on FGIN1-27-stimulated pregnenolone production [4]: antagonize the steroid production stimulated by MBR agonist
CN1C(=O)CN=C(c2ccc(Cl)cc2)c2cc(Cl)ccc21 [Ro5-4864, 7-chloro-5-(4-chlorophenyl)-1-methyl-2-oxo-2,3-dihydro-1H-benzodiazepine] |  | 8.9 ± 1.16 | 8.6 ± 0.91 | 123.59 ± 5.41% | MBR agonists which increase pregnenolone production | did not produce significant effects | number of fecal pellets ([3]; 10 mg/kg): 9.2 ± 0.98; effect on number of fecal pellets vs vehicle (significance, all doses) [3]: No significant effect in any dose.
